Literature values, collected in patent US20030219468A1 (priority 2002, published 2003).

Legend:
[1] = sorbic acid and its salts
[2] = cold water
[3] = test system: Plasmodium berghei; conditions: mice, toward Plasmodium berghei

C/C=C/C=C/C(=O)O [Sorbic acid, trans,trans-2,4-hexadienoic acid]
microbiostatic antimycotic activity [1]: very high microbiostatic antimycotic activity | solubility [2]: only slightly soluble

Curdlan
immunizing activity [3]: immunizing activity
